According to patent US10253060B2, “Terpenoid derivatives” (Daiichi Sankyo Company, Limited, priority 2013, dated 2019):

What was measured:
[1] = system: ARPE-19 cells; test: Cytotoxicity, LDH-Cytotoxic Test in ARPE-19 cells; type: cell-based, human; settings: 10 μM, approx. 16 hours, 3 wells
Description: ARPE-19 cells (human retinal pigment epithelium cell line, ATCC, catalog No. CRL-2302) were cultured (5% CO2, 37° C.). A DMEM/F12 (Life Technologies Japan Ltd., catalog No. 11330-032) mixed medium containing 10% inactivated FBS was used. The medium contained 100 units/mL (final concentration) penicillin and 100 μg/[…] (final concentration) streptomycin.
The ARPE-19 cells were seeded at 5000 cells/well in a 96-well plate. The amount of the medium was 50 μL. Approximately 3 hours later, 50 μL of a medium containing CDDO-Me or each of terpenoid derivatives A to H was added thereto, followed by culture for approximately 16 hours. Then, cytotoxicity was evaluated using LDH-Cytotoxic Test (Wako Pure Chemical Industries, Ltd., catalog No. 299-50601). The evaluation method followed the attached document. Each group consisted of 3 wells and was indicated as cytotoxicity at the concentration of 10 μM. The means thereof were 43% for CDDO-Me, 2% for terpenoid derivative A, 2% for terpenoid derivative B, 2% for terpenoid derivative C, 1% for terpenoid derivative D, 2% for terpenoid derivative E, 3% for terpenoid derivative F, 3% for terpenoid derivative G, and 1% for terpenoid derivative H. Terpenoid derivatives A to H were low in cytotoxicity as compared with CDDO-Me.

[2] = system: NQO1; test: NQO1 assay in Hepa1c1c7 cells; type: cell-based, mouse; settings: approx. 48 hours, mean of 3 wells
Description: Hepa1c1c7 cells (mouse hepatic cell line, ATCC, catalog No. CRL-2026) were cultured (5% CO2, 37° C.). A DMEM (Life Technologies Japan Ltd., catalog No. 11965-092) medium also containing 10% inactivated FBS was used. The medium contained 100 units/mL (final concentration) penicillin and 100 μg/[…] (final concentration) streptomycin. The NQO1 assay was conducted according to previous reports (Anal Biochem 1998; 169: 328-; and Methods Enzymol 2004; 382: 243-).
The Hepa1c1c7 cells were seeded at 10000 cells/well in a 96-well plate. The amount of the medium was 100 μL. Approximately 24 hours later, the medium was replaced with a medium containing CDDO-Me or each of terpenoid derivatives A to G, followed by further culture for approximately 48 hours. A lysis solution (a solution containing 2 mM EDTA and 0.8% digitonin), a reaction solution (a solution containing 0.025 M of tris-HCl, 0.067% of albumin, 0.01% of Tween-20, 2 U/mL of glucose-6-phosphate dehydrogenase, 5 μM of flavin adenine dinucleotide, 1 […], 30 μM of nicotinamide adenine dinucleotide phosphate, 0.03% of 3-(4,5-dimethyl-2-thiazolyl)-2,5-diphenyltetrazolium bromide (MTT), and 50 μM of menadione), and a stop solution (a solution containing 0.3 mM dicumarol and 5 mM potassium dihydrogen phosphate, pH 7.4) were prepared. After removal of the medium, 50 μL of the lysis solution was added thereto, and the mixture was left standing at 37° C. for 10 minutes. The reaction mixture was further shaken at room temperature for 10 minutes.
Two hundred μL of the solution was added thereto, and the mixture was left standing at room temperature for 5 minutes. Fifty μL of the stop solution was added thereto, and the absorbance at 490 nm was measured.
The test results were analyzed using Prism (GraphPad Software, Inc., Ver. 5) to calculate the CD value of the concentration at which the activity of NQO1 was increased 2-fold. Each group consisted of 3 wells and indicated as a mean of CD values.

SMILES | cytotoxicity (LDH-Cytotoxic Test), mean [1] | CD value (concentration at which the activity of NQO1 was increased 2-fold) [2]
COC(=O)[C@@]12CC[C@]3(C)[C@H](C(=O)C=C4[C@@]5(C)[C@H]6O[C@@]6(C#N)C(=O)C(C)(C)[C@@H]5CC[C@]43C)[C@@H]1CC(C)(C)C(=O)C2 [terpenoid derivative C] | 2% | 0.4 nM
COC(=O)[C@]12CCC(C)(C)C[C@H]1[C@H]1C(=O)C=C3[C@@]4(C)C5OC5(C#N)C(=O)C(C)(C)[C@@H]4CC(O)[C@@]3(C)[C@]1(C)CC2 (stereo partly shown) [terpenoid derivative H] | 1% | 
CC1(C)C[C@H]2[C@H]3C(=O)C=C4[C@@]5(C)C=C(C#N)C(=O)C(C)(C)[C@@H]5CC[C@@]4(C)[C@]3(C)CC[C@@]2(C#N)CC1O (stereo partly shown) [terpenoid derivative G] | 3% | 0.1 nM
CC1(C)CC(O)[C@]2(C(N)=O)CC[C@]3(C)[C@H](C(=O)C=C4[C@@]5(C)C6OC6(C#N)C(=O)C(C)(C)[C@@H]5CC[C@]43C)[C@@H]2C1 (stereo partly shown) [terpenoid derivative E] | 2% | 2.1 nM
COC(=O)[C@]12CC[C@@](C)(CO)C[C@H]1[C@H]1C(=O)C=C3[C@@]4(C)[C@H]5O[C@@]5(C#N)C(=O)C(C)(C)[C@@H]4CC[C@@]3(C)[C@]1(C)CC2 [terpenoid derivative D] | 1% | 0.9 nM
COC(=O)[C@]12CC[C@](C)(CO)C[C@H]1[C@H]1C(=O)C=C3[C@@]4(C)[C@H]5O[C@@]5(C#N)C(=O)C(C)(C)[C@@H]4CC[C@@]3(C)[C@]1(C)CC2 [terpenoid derivative A] | 2% | 1.3 nM
CC1(C)C[C@H]2[C@H]3C(=O)C=C4[C@@]5(C)C6OC6(C#N)C(=O)C(C)(C)[C@@H]5CC[C@@]4(C)[C@]3(C)CC[C@@]2(C#N)CC1O (stereo partly shown) [terpenoid derivative F] | 3% | 0.1 nM
